Among the data in ChEMBL document CHEMBL3044696, “Synthesis, antimalarial-, and antibacterial activity evaluation of some new 4-aminoquinoline derivatives” (2013) are zone of inhibition and Activity values, retold here.

Assay [1] relates to Staphylococcus aureus. The experiment in a line: Antibacterial activity against Staphylococcus aureus ATCC BAA 1026 assessed as growth inhibition at 25 ug/disk after 24 hr by Kirby-Bauer disk diffusion method. The assay is classed as functional. The following applies: ATCC BAA 1026, 24 h, read-out: DIZ. For orientation: In agar diffusion tests the substance spreads into inoculated agar from a disc or well.

In assay [2] the test system is Bacillus subtilis. The experiment in a line: Antibacterial activity against Bacillus subtilis ATCC 11774 assessed as growth inhibition at 50 ug/disk after 24 hr by Kirby-Bauer disk diffusion method. The following applies: ATCC 11774, 24 h, read-out: DIZ. The assay is classed as functional.
Assay [3] has as its system Pseudomonas aeruginosa. Description: Antibacterial activity against Pseudomonas aeruginosa ATCC 10662 assessed as growth inhibition at 25 ug/disk after 24 hr by Kirby-Bauer disk diffusion method. Type of assay: functional. The following applies: ATCC 10662, 24 h, read-out: DIZ.
Assay [4] relates to Klebsiella pneumoniae. Description: Antibacterial activity against Klebsiella pneumoniae ATCC 33495 assessed as growth inhibition at 50 ug/disk after 24 hr by Kirby-Bauer disk diffusion method. The assay is classed as functional. The following applies: ATCC 33495, 24 h, read-out: DIZ.
Assay [5] has as its system Bacillus cereus. The experiment in a line: Antibacterial activity against Bacillus cereus ATCC 10876 assessed as growth inhibition at 25 ug/disk after 24 hr by Kirby-Bauer disk diffusion method. Type of assay: functional. The following applies: ATCC 10876, 24 h, read-out: DIZ.
For assay [6], the system named is Bacillus subtilis. Description: Antibacterial activity against Bacillus subtilis ATCC 11774 assessed as growth inhibition at 25 ug/disk after 24 hr by Kirby-Bauer disk diffusion method. Type of assay: functional. The following applies: ATCC 11774, 24 h, read-out: DIZ.
Assay [7] concerns Staphylococcus aureus. Description: Antibacterial activity against Staphylococcus aureus ATCC BAA 1026 assessed as growth inhibition at 50 ug/disk after 24 hr by Kirby-Bauer disk diffusion method. Type of assay: functional. The following applies: ATCC BAA 1026, 24 h, read-out: DIZ.
Assay [8] concerns Plasmodium falciparum. The experiment in a line: Antimalarial activity against chloroquine-sensitive Plasmodium falciparum 3D7 infected human RBC assessed as dead ring and trophozoite stage of parasite at 50 ug/mL after 40 hr by Giemsa staining-based light microscopic analysis relative to control. The assay is classed as functional.
Assay [9] deals with Klebsiella pneumoniae. The experiment in a line: Antibacterial activity against Klebsiella pneumoniae ATCC 33495 assessed as growth inhibition at 25 ug/disk after 24 hr by Kirby-Bauer disk diffusion method. The assay is classed as functional. The following applies: ATCC 33495, 24 h, read-out: DIZ.
The subject of assay [10] is Escherichia coli. Description: Antibacterial activity against Escherichia coli ATCC 10536 assessed as growth inhibition at 25 ug/disk after 24 hr by Kirby-Bauer disk diffusion method. The assay is classed as functional. The following applies: ATCC 10536, 24 h, read-out: DIZ.
The subject of assay [11] is Escherichia coli. The experiment in a line: Antibacterial activity against Escherichia coli ATCC 10536 assessed as growth inhibition at 50 ug/disk after 24 hr by Kirby-Bauer disk diffusion method. Type of assay: functional. The following applies: ATCC 10536, 24 h, read-out: DIZ.
Assay [12] has as its system Pseudomonas aeruginosa. The experiment in a line: Antibacterial activity against Pseudomonas aeruginosa ATCC 10662 assessed as growth inhibition at 50 ug/disk after 24 hr by Kirby-Bauer disk diffusion method. Type of assay: functional. The following applies: ATCC 10662, 24 h, read-out: DIZ.
The subject of assay [13] is Plasmodium falciparum. The experiment in a line: Antimalarial activity against chloroquine-sensitive Plasmodium falciparum 3D7 infected human RBC assessed as dead ring and trophozoite stage of parasite at 0.4 ug/mL after 40 hr by Giemsa staining-based light microscopic analysis relative to control.
Assay [14] relates to Bacillus cereus. The experiment in a line: Antibacterial activity against Bacillus cereus ATCC 10876 assessed as growth inhibition at 5 ug/disk after 24 hr by Kirby-Bauer disk diffusion method. The assay is classed as functional. The following applies: ATCC 10876, 24 h, read-out: DIZ.
In assay [15] the test system is Bacillus subtilis. The experiment in a line: Antibacterial activity against Bacillus subtilis ATCC 11774 assessed as growth inhibition at 5 ug/disk after 24 hr by Kirby-Bauer disk diffusion method. The following applies: ATCC 11774, 24 h, read-out: DIZ. The assay is classed as functional.
For assay [16], the system named is Pseudomonas aeruginosa. Description: Antibacterial activity against Pseudomonas aeruginosa ATCC 10662 assessed as growth inhibition at 5 ug/disk after 24 hr by Kirby-Bauer disk diffusion method. The following applies: ATCC 10662, 24 h, read-out: DIZ. The assay is classed as functional.
For assay [17], the system named is Escherichia coli. Description: Antibacterial activity against Escherichia coli ATCC 10536 assessed as growth inhibition at 5 ug/disk after 24 hr by Kirby-Bauer disk diffusion method. Type of assay: functional. The following applies: ATCC 10536, 24 h, read-out: DIZ.
The subject of assay [18] is Staphylococcus aureus. Description: Antibacterial activity against Staphylococcus aureus ATCC BAA 1026 assessed as growth inhibition at 5 ug/disk after 24 hr by Kirby-Bauer disk diffusion method. Type of assay: functional. The following applies: ATCC BAA 1026, 24 h, read-out: DIZ.
For assay [19], the system named is Klebsiella pneumoniae. Description: Antibacterial activity against Klebsiella pneumoniae ATCC 33495 assessed as growth inhibition at 5 ug/disk after 24 hr by Kirby-Bauer disk diffusion method. The assay is classed as functional. The following applies: ATCC 33495, 24 h, read-out: DIZ.

As to `Cc1ccc(C2SCCC(=O)N2CCCNc2ccnc3cc(Cl)ccc23)s1` (centres undefined), the zone of inhibition at 25 µg/disc was 14 mm with Staphylococcus aureus [1]; 13.9 mm with Pseudomonas aeruginosa [3]; 13.9 mm with Bacillus cereus [5]; 14.2 mm in the assay on Bacillus subtilis [6]; 13.9 mm in the assay with Klebsiella pneumoniae [9]; 14.2 mm in the assay with Escherichia coli [10]. Also, the zone of inhibition at 50 µg/disc with Bacillus subtilis [2], in the assay on Klebsiella pneumoniae [4] and in the assay with Staphylococcus aureus [7] was 23.9 mm throughout. Further, in the assay on Plasmodium falciparum [8], the Activity worked out at 22%.

For the compound `O=C1CCSC(c2ccccc2F)N1CCCNc1ccnc2cc(Cl)ccc12` (centres undefined), the zone of inhibition at 25 µg/disc turned out to be 14.2 mm with Staphylococcus aureus [1]; 14.1 mm with Pseudomonas aeruginosa [3]; 14.3 mm with Bacillus cereus [5]; 18.8 mm in the assay on Bacillus subtilis [6]; 14.3 mm with Klebsiella pneumoniae [9]; 14.3 mm in the assay with Escherichia coli [10]. The zone of inhibition at 50 µg/disc with Staphylococcus aureus [7] was 23.9 mm. Also, the Activity with Plasmodium falciparum [8] is recorded as 39%.

Take `COc1ccc(C2SCCC(=O)N2CCCNc2ccnc3cc(Cl)ccc23)cc1` (centres undefined): the zone of inhibition at 50 µg/disc came to 24.4 mm with Escherichia coli [11], 23.3 mm in the assay on Bacillus subtilis [2], 24.2 mm in the assay on Klebsiella pneumoniae [4] and 24.1 mm in the assay with Staphylococcus aureus [7]. Further, the zone of inhibition at 25 µg/disc stood at 14.1 mm with Staphylococcus aureus [1]; 14.3 mm in the assay with Pseudomonas aeruginosa [3]; 14.3 mm with Bacillus cereus [5]; 14.2 mm with Bacillus subtilis [6]; 14.1 mm with Klebsiella pneumoniae [9]; 14.2 mm in the assay on Escherichia coli [10]. In addition, in the assay on Plasmodium falciparum [8], the Activity is 32%.

`O=C1CCSC(c2cccc(O)c2)N1CCCNc1ccnc2cc(Cl)ccc12` (centres undefined): the results for the zone of inhibition at 50 µg/disc in the assay on Escherichia coli [11] and in the assay with Pseudomonas aeruginosa [12] were 24.3 mm and 23.9 mm, respectively. Further, the zone of inhibition at 25 µg/disc is 14.3 mm in the assay on Staphylococcus aureus [1]; 13.9 mm with Pseudomonas aeruginosa [3]; 14.1 mm with Bacillus cereus [5]; 13.8 mm with Bacillus subtilis [6]; 14 mm in the assay with Klebsiella pneumoniae [9]; 13.9 mm in the assay with Escherichia coli [10]. Besides, the Activity in the assay with Plasmodium falciparum [8] is 39.5%.

With `O=C1CCSC(c2ccco2)N1CCCNc1ccnc2cc(Cl)ccc12` (centres undefined), the zone of inhibition at 50 µg/disc is 24.1 mm with Escherichia coli [11], 23.5 mm in the assay on Bacillus subtilis [2], 24.1 mm in the assay with Klebsiella pneumoniae [4] and 24.2 mm in the assay with Staphylococcus aureus [7]. Further, the zone of inhibition at 25 µg/disc in the assay with Staphylococcus aureus [1] worked out at 14.3 mm; in the assay with Pseudomonas aeruginosa [3] it was 13.7 mm; with Bacillus cereus [5], 14.2 mm; with Bacillus subtilis [6], 14.1 mm; in the assay with Klebsiella pneumoniae [9] it was 14.2 mm; in the assay on Escherichia coli [10], 14 mm. Further, the Activity in the assay on Plasmodium falciparum [8] turned out to be 38.5%.

Turning to `CCC1SCCC(=O)N1CCCNc1ccnc2cc(Cl)ccc12` (centres undefined), the zone of inhibition at 50 µg/disc with Escherichia coli [11] is 23.4 mm; in the assay with Bacillus subtilis [2], 23.2 mm; in the assay on Pseudomonas aeruginosa [12] it was 23.1 mm; with Klebsiella pneumoniae [4] it was 23.1 mm; with Staphylococcus aureus [7] it was 23.1 mm. The zone of inhibition at 25 µg/disc is 12.9 mm with Staphylococcus aureus [1]; 13.5 mm in the assay on Pseudomonas aeruginosa [3]; 13.5 mm in the assay on Bacillus cereus [5]; 13.1 mm in the assay with Bacillus subtilis [6]; 13.2 mm in the assay with Klebsiella pneumoniae [9]; 13.7 mm in the assay with Escherichia coli [10]. In the assay on Plasmodium falciparum [8], the Activity is recorded as 18.5%.

On to `CN(C)c1ccc(C2SCCC(=O)N2CCCNc2ccnc3cc(Cl)ccc23)cc1` (centres undefined), for which the zone of inhibition at 50 µg/disc turned out to be 23.9 mm with Escherichia coli [11], 23.7 mm in the assay with Bacillus subtilis [2], 24.1 mm in the assay with Klebsiella pneumoniae [4] and 23.9 mm in the assay with Staphylococcus aureus [7]. The zone of inhibition at 25 µg/disc was 13.9 mm in the assay with Staphylococcus aureus [1]; 13.7 mm in the assay on Pseudomonas aeruginosa [3]; 14 mm in the assay with Bacillus cereus [5]; 14.3 mm in the assay with Bacillus subtilis [6]; 14.1 mm with Klebsiella pneumoniae [9]; 14.3 mm in the assay on Escherichia coli [10]. Besides, in the assay with Plasmodium falciparum [8], the Activity is recorded as 25%.

As for `CCN(CC)CCCC(C)Nc1ccnc2cc(Cl)ccc12` (centres undefined) [CHLOROQUINE], in the assay on Plasmodium falciparum [13], the Activity stood at 67%.

`CC1COc2c(N3CCN(C)CC3)c(F)cc3c(=O)c(C(=O)O)cn1c23` (centres undefined) [OFLOXACIN]: the zone of inhibition at 5 µg/disc worked out at 20.3 mm in the assay on Bacillus cereus [14]; 20.7 mm in the assay on Bacillus subtilis [15]; 20.8 mm in the assay with Pseudomonas aeruginosa [16]; 21.5 mm in the assay on Escherichia coli [17]; 21.7 mm in the assay with Staphylococcus aureus [18]; 20.3 mm in the assay with Klebsiella pneumoniae [19].
